Measured values reported in patent US10314870B2, “Tropism modified cancer terminator virus (Ad.5/3 CTV;AD.5/3-CTV-M7)” (priority 2012, dated 2019).

Assays:
[1] = tested on: MIA PaCa-2/luc xenografts; assay: MIA PaCa-2/luc xenografts on both flanks, Ad/MB by tail vein with UTMD on left tumor; assay type: in vivo, nude mice; settings: POH 75 mg/kg i.p. daily; Ad.5-vec+POH compared to Ad.5/3-vec
Protocol: FIG. 11A-E. Ad.5/3-CTV-M7 in combination with POH completely eradicates primary and distant tumors in nude mice bearing human pancreatic tumor xenografts. Tumor xenografts generated from MIA-PaCa-2 cells stably expressing a luciferase gene (MIA PaCa-2-luc) were established in both the left and right flanks of nude mice. Tumors on the left flank were sonoporated for 10 min following tail-vein injection of the indicated complement treated Ad/MB complex, and treated as described in Materials and Methods section for 3 weeks starting from day 14 (1 injection/week). POH was administered i.p. daily for 4 weeks from day 1 of implantation of cells in nude mice. (A) Bioluminescence imaging (BLI) was performed using Xenogen In Vivo Imaging System (IVIS). BLI was performed every week and luminescence was quantified and tumor growth response curve of the left flank (B) and right flank or distant tumor (C) was plotted. (D) Secreted MDA-7/IL-24 in blood serum was measured using an MDA-7/IL-24 ELISA kit. (E) There was significant increase in ‘bystander’ effect of MDA-7/IL-24 in inhibiting in vivo tumor growth as measured by BLI. […]
Athymic nude mice were injected s.c. in both flanks with 5×10^6 MIA PaCa-2/luc (a stable clone of MIA PaCa-2 cells containing integrated pGL-3/luc). […] Images were analyzed by Living Image software. […]

[2] = tested on: MIA PaCa-2 and BxPC-3 cells; assay: ROS formation, carboxy-H2DCFDA fluorescence; assay type: cell-based, human; settings: 200 μM
Protocol: FIG. 14. Temporal kinetics of reactive oxygen species (ROS) formation induced by POH. MIA PaCa-2 and BxPC-3 cells were stained with carboxy-H2DCF-DA in PBS for 30 min followed by treatment of POH, and fluorescence was measured using a Flurometer with a green filter at the indicated time points. The readings noted were the difference between POH-treated group compared to untreated control.
To determine ROS production, cells were stained with 100 μl of 10 μM carboxy-H2DCFDA (Molecular Probes™, Invitrogen) in PBS for 30 min followed by treatment with Perillyl alcohol and fluorescence was measured with a Fluorometer using a green filter at the indicated time points.

[3] = cited from earlier work
PDAC cell lines = assay: MTT cell viability assay in pancreatic cancer cell lines; assay type: cell-based, human; settings: 200 μM
Protocol: FIGS. 13A-D. Cancer-specific oncolytic effects of CTV-M7 in pancreatic cancer cells. Pancreatic cancer cells were treated with non-replicating Ad.5-mda-7 or Ad.5/3-mda-7 as well as conditional replication-competent Ads (CRCA) i.e., Ad.5-CTV-M7 and Ad.5/3-CTV-M7 and MTT assays were performed after 3 days. IC50 was calculated using GraphPad Prism 5.0. Points; mean±S.E. of three different experiments each performed in quadruplicate.
Pancreatic cancer cell lines were infected with Ad in incomplete medium for 3 h followed by treatment with Perillyl alcohol (POH) (200 μM) in complete medium (10% FBS) for 72 h, and cell proliferation assays were performed at O.D. 560 nm using cell proliferation assays after adding 100 μl of 3-(4,5-dimethylthiazol-2-yl)-2,5-diphenyltetrazolium bromide (Sigma Aldrich) (MTT) dye (1 mg/ml) (Sigma-Aldrich).

GBM6 cells [4] = assay: Autophagy, LC3-GFP vesicle formation; assay type: cell-based, human
Protocol: FIG. 19A-D. Induction of ER stress and autophagy plays a role in the interaction between MDA-7/IL-24 and HDACIs. Panel A. GBM6 cells were transfected in quadruplicate with a plasmid to express an LC3 (ATG8)-GFP fusion protein and in parallel transfected with scrambled siRNA (siSCR) or an siRNA to knock down Beclin/expression. Twenty-four h after transfection cells were treated with GST or GST-MDA-7 (20 nM) and/or SBHA (3 μM). Cells (a representative of 40 per well per time point) were examined 6 h, 12 h and 24 h after treatment using an Axiovert microscope (x40) for the formation of punctate vesicles containing LC3-GFP. Data are plotted as the number of LC3-GFP vesicles per cell (n=-2, +/− SEM) (*p<0.05 greater than GST+VEH; **p<0.05 greater than GST-MDA-7+VEH). Panel B. GBM6 cells were transfected with scrambled siRNA (siSCR) or an siRNA to knock down Beclinl expression. Twenty-four h after transfection cells were treated with GST or GST-MDA-7 (20 nM) and/or SBHA (3 μM). Cells were isolated 48 h later and viability determined by trypan blue exclusion (n=3, +/− SEM) (#p<0.05 less than corresponding value in siSCR cells). Panel C. GBM6 cells were transfected with an empty vector control plasmid or a plasmid to express dominant negative PERK. […] Cells were isolated 6 h after exposure and the phosphorylation of PERK and eIF2α determined (representative n=2). […]

GBM6 cells [5] = assay: Colony formation assay with Calcusyn analysis; assay type: cell-based, human; settings: GBM cells
Protocol: GBM6 cells were plated as single cells (500-2,500 per 60-mm dish, in sextuplicate). […] Forty-eight h later cells were washed free of drugs and colonies were permitted to form for 20 days. (n=3, +/−SEM). Using the Calcusyn for Windows program we calculated the fraction affected (Fa) and the Combination Index (CI). A CI value of less than 1.00 indicates a synergy of interaction.

[6] = tested on: primary human GBM cells (GBM6, GBM12); assay: Cell death by trypan blue exclusion in primary human GBM cells; assay type: cell-based
Text: The pooled cell pellets were resuspended and mixed with trypan blue dye.

Molecule: C=C(C)[C@@H]1CC=C(CO)CC1 [POH, perillyl alcohol]
- effect of the POH dose with empty vector on tumor growth [1]: non-toxic but therapeutically inactive
- ROS levels at 24 h ([2]; 24 h): baseline levels
- time of maximum ROS levels ([2]; time course): 6 h
- ROS induction ([2]; wild type and mutant K-ras pancreatic cell lines): sufficient to induce significant amounts of ROS
- side effects ([3]; POH 800-1600 mg/m^2/dose): minimal side effects
- stability and detection in plasma ([3]; plasma): very unstable and cannot be detected in plasma
- lethality and proliferation of PDAC cell lines (PDAC cell lines): not lethal and does not affect proliferation

Molecule: C=C(C)[C@@H]1CC=C(C(=O)O)CC1 [Perillic acid]
- plasma concentration associated with minimal toxicities ([3]; plasma): 500 µM

Molecule: O=C(CCCCCCC(=O)NO)NO [SBHA, Suberohydroxamic acid]
- effect on MDA-7/IL-24 stimulated autophagy levels (GBM6 cells [4]; SBHA 3 μM with GST-MDA-7 20 nM): enhanced MDA-7/IL-24 stimulated autophagy levels
- interaction with MDA-7/IL-24 protein in colony formation (GBM6 cells [5]): synergized
- effect on lethality of MDA-7/IL-24 ([6]; GBM6, GBM12 infected with Ad.5-mda-7 moi 10, Na Valproate 0.3-1.0 mM, SBHA 0.3-5.0 μM, 48 h, dose-dependent): enhanced the lethality of MDA-7/IL-24

Molecule: CCOC(=O)C1=C(N)Oc2ccc(Br)cc2C1C(C#N)C(=O)OCC (centres unmarked) [HA14-1]
- effect on lethality of Ad.5-mda-7 ([6]; GBM6, Ad.5-mda-7 moi 10, obatoclax 0-200 nM or HA14-1 0-10 μM, 24 h): enhanced the lethality of Ad.5-mda-7

Molecule: CCCC(CCC)C(=O)[O-].[Na+] [sodium valproate]
- interaction with MDA-7/IL-24 protein in colony formation (GBM6 cells [5]): synergized

B1: GST-MDA-7: bacterially synthesized GST-MDA-7 protein (protein)
chain: QEFHFGPCQVKGVVPQKLWEAFWAVKDTMQAQDNITSARLLQQEVLQNVSDAESCYLVHTLLEFYLKTVFKNYHNRTVEVRTLKSFSTLANNFVLIVSQLQPSQENEMFSIRDSAHRRFLLFRRAFKQLDVEAALTKALGEVDILLTWMQKFYKL
- autophagy (LC3-GFP vesicle) levels (GBM6 cells [4]; GST-MDA-7 20 nM, 6 h, 12 h, 24 h, time-dependent): increased autophagy
